The values that follow come from ChEMBL document CHEMBL1909544, “Renin inhibitors for the treatment of hypertension: design and optimization of a novel series of tertiary alcohol-bearing piperidines” (Bioorg Med Chem Lett, 2011).

Assay type in all cases: ADME, organism-based
A short description of series [1]: Clearance in Sprague-Dawley rat at 3 mg/kg, po and 5 mg/kg, iv. The following applies: in vivo.
Series [2] is described as follows: Half life in Sprague-Dawley rat at 3 mg/kg, po and 5 mg/kg, iv. The following applies: in vivo.
A short description of series [3]: Volume of distribution at steady state in Sprague-Dawley rat at 3 mg/kg, po and 5 mg/kg, iv. Conditions: in vivo, read-out: Vdss.
Series [4] is described as follows: AUC in Sprague-Dawley rat at 3 mg/kg, po. Also on record: dose 3 mg/kg, route oral. Conditions: plasma.
Series [5] is described as follows: Oral bioavailability in Sprague-Dawley rat at 3 mg/kg. The following applies: in vivo.
Series [6] in a line: Half life in Sprague-Dawley rat at 5 mg/kg, iv. Also on record: dose 5 mg/kg, route intravenous. Conditions: in vivo.
Series [7] is described as follows: Oral bioavailability in Sprague-Dawley rat at 0.3 mg/kg. The following applies: in vivo.
Series [8] in a line: Oral bioavailability in Sprague-Dawley rat at 30 mg/kg. Conditions: in vivo.
Series [9] is described as follows: Volume of distribution at steady state in Sprague-Dawley rat at 5 mg/kg, iv. Also on record: dose 5 mg/kg, route intravenous. The following applies: in vivo, read-out: Vdss.
Series [10] can be described thus: Clearance in Sprague-Dawley rat at 5 mg/kg, iv. Also on record: dose 5 mg/kg, route intravenous. Conditions: in vivo.

Structures are written as SMILES.

Take `O=C([C@H]1CNCC[C@]1(OCC(O)CO)c1ccc(F)c(F)c1)N(Cc1cn(Cc2cccc(F)c2)c2cccc(F)c12)C1CC1` (mixture of isomers): the clearance in series [1] was 16 mL/min/kg. This compound also showed a half-life in series [2] of 156 min. For the same compound, the Vd in [3] turned out to be 0.4 L/kg. Also, the AUC in series [4] is 0.04 µM·h. Further, in series [5], the bioavailability was < 1%.

Take `O=C([C@H]1CNCC[C@]1(O)c1ccc(F)c(F)c1)N(Cc1cn(Cc2cccc(F)c2)c2cccc(F)c12)C1CC1` (racemic): the clearance in [1] was 93 mL/min/kg. The compound also showed a half-life in [2] of 564 min. Moreover, the Vd in series [3] amounted to 48 L/kg. The compound also showed an AUC in [4] of 0.34 µM·h. Further, the bioavailability in [5] worked out at 37%.

The compound `COCCCc1cc(CN(C(=O)C2CNCCC2(O)c2ccc(F)c(F)c2)C2CC2)cc(OCCOC)c1` (single isomer, unassigned) had a half-life in series [6] of 90 min. For the same compound, the figures for the bioavailability in [7], in series [8] and in series [5] were 17%, 18% and 29%, respectively. The Vd in series [9] turned out to be 5 L/kg. For the same compound, in [10], the clearance worked out at 36 mL/min/kg.
